Experimental data published in patent US5885988A, “Benzo[g]quinoline derivatives” (Novartis AG, priority 1995, dated 1999).

What was measured:
[1] = target: rat sst1 receptors (Rattus norvegicus, UniProt P28646); experiment: radioligand binding, rat sst1 receptors; conditions: read-out: affinity for rat sst1 receptors, pIC50 (converted)
Text: (§1) In particular the agents of the invention bind to somatostatin receptors.
(§2) For all the above indications the preferred compound is [3R,4aR,10aR]-1,2,3,4,4a,5,10, 10a-octahydro-6-methoxy-1 -methyl-benzo[g]quinoline-3-carboxylic acid 4-(4-nitro-phenyl)-piperazine amide, which is the compound of example 1.

[2] = target: T1, recombinant human sst1 receptors (Homo sapiens, UniProt P30872); experiment: radioligand binding, recombinant human sst1 receptors; conditions: read-out: affinity for recombinant human sst1 receptors, pIC50 (converted)
T1 construct: expressed in transfected cells
T1 sequence (P30872 whole entry): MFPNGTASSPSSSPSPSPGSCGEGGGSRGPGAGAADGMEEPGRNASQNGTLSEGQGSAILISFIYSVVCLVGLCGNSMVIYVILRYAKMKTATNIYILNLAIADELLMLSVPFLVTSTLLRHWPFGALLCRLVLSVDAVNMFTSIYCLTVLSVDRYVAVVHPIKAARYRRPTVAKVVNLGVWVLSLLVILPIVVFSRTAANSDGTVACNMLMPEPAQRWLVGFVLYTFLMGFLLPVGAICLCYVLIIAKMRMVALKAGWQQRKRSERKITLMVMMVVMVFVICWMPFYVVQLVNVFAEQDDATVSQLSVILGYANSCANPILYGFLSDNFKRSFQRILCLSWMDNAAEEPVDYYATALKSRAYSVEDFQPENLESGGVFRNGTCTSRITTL
Text: as §1, §2

[3] = system: neurotransmitter receptors; experiment: activity at a wide range of neurotransmitter receptors; type: binding
Text: as §2

[4] = intruder mouse test; type: in vivo; conditions: for social withdrawal in the intruder mouse test, standard anti-manic drugs: 3-30 mg/kg s.c.
Text: as §2

[5] = Matched Pairs Situation test; type: in vivo, mice; conditions: for potency compared with the compound of example 1: Matched Pairs Situation test and intruder mouse test, 3-30 mg/kg s.c. versus 1-10 mg/kg s.c.
Text: Furthermore at said doses the compounds of the invention reduce aggressive behavior (attacks, chases, bites) in the Matched Pairs Situation test in mice [Dixon et al., J. Clin. Psychiatry 55: (9) [Suppl. B] 4-7 (1994)]. […] They are therefore indicated for the treatment of affective disorders including bipolar disorders e.g. manic-depressive psychoses, extreme psychotic states e.g. mania, schizophrenia, and excessive mood swings where behavioral stabilization is desired. In addition, the compounds are indicated in anxiety states, generalized anxiety as well as social and agoraphobia, as well as those behavioural states characterized by social withdrawal e.g. negative symptoms.
as §2

Sequence of rat sst1 receptors (P28646 whole entry): as the sequence (P30872 whole entry) above, with S8P, S11T, P16S, S20G, G25V, G26C, A32S, A45S, T385A, T389S counted along it

Row | Structure (SMILES) | IC50 [1] [nM] | IC50 [2] [nM] | activity for a wide range of neurotransmitter receptors [3] | social withdrawal in the intruder mouse test ([4]; 1-10 mg/kg s.c.) | aggressive behavior in the Matched Pairs Situation test ([5]; 1-10 mg/kg s.c.) | social withdrawal in the intruder mouse test, standard anti-manic drugs [4] | potency compared with the compound of example 1 [5]
1 | COc1cccc2c1C[C@H]1C[C@@H](C(=O)N3CCN(c4ccc([N+](=O)[O-])cc4)CC3)CN(C)[C@@H]1C2 [Example 1, [3R,4aR,10aR]-1,2,3,4,4a ,5,10,10a-octahydro-6-methoxy-1-methyl-benzo[g]quinoline-3-carboxylic acid 4-(4-nitro-phenyl)-piperazine amide] | 0.794 | 20 | without significant activity | reverses social withdrawal | clearly lowers aggressive behavior |  | 
2 | NC(=O)N1c2ccccc2C=Cc2ccccc21 [carbamazepine] |  |  |  |  |  | These effects are also observed | less potent
3 | [Li] [lithium] |  |  |  |  |  | These effects are also observed | less potent
